ChEMBL document CHEMBL5212743, “Selectivity Literature for EUbOPEN Chemogenomics Library wave 3” (2023)

What was measured:
[1] = target: 5-hydroxytryptamine receptor 2B (Homo sapiens, UniProt P41595); test: Selectivity interaction (CEREP Wide Ligand screening panel (ion channels, receptors, enzymes)) EUB0000304b HTR2B; conditions: at 10 µM
[2] = target: Muscarinic acetylcholine receptor M3 (Homo sapiens) (UniProt P20309); test: Selectivity interaction (CEREP Wide Ligand screening panel (ion channels, receptors, enzymes)) EUB0000304b CHRM3; conditions: at 10 µM
[3] = target: Adenosine receptor A2b (Homo sapiens) (UniProt P29275); test: Selectivity interaction (CEREP Wide Ligand screening panel (ion channels, receptors, enzymes)) EUB0000304b ADORA2B; conditions: at 10 µM
[4] = target: Gastrin/cholecystokinin type B receptor (Homo sapiens) (UniProt P32239); test: Selectivity interaction (CEREP Wide Ligand screening panel (ion channels, receptors, enzymes)) EUB0000304b CCKBR; conditions: at 10 µM
[5] = target: Melatonin receptor type 1B (Homo sapiens) (UniProt P49286); test: Selectivity interaction (CEREP Wide Ligand screening panel (ion channels, receptors, enzymes)) EUB0000304b MTNR1B; conditions: at 10 µM
[6] = target: T1, Kappa-type opioid receptor (Homo sapiens, UniProt P41145); test: Selectivity interaction (CEREP Wide Ligand screening panel (ion channels, receptors, enzymes)) EUB0000304b OPRK1; conditions: at 10 µM
[7] = target: Mu-type opioid receptor (Homo sapiens, UniProt P35372); test: Selectivity interaction (CEREP Wide Ligand screening panel (ion channels, receptors, enzymes)) EUB0000304b OPRM1; conditions: at 10 µM
[8] = target: Substance-P receptor (Homo sapiens) (UniProt P25103); test: Selectivity interaction (CEREP Wide Ligand screening panel (ion channels, receptors, enzymes)) EUB0000304b TACR1; conditions: at 10 µM
[9] = target: T2, Prostaglandin G/H synthase 2 (Homo sapiens) (UniProt P35354); test: Selectivity interaction (CEREP Wide Ligand screening panel (ion channels, receptors, enzymes)) EUB0000304b PTGS2; conditions: at 10 µM
T2 sequence (whole entry): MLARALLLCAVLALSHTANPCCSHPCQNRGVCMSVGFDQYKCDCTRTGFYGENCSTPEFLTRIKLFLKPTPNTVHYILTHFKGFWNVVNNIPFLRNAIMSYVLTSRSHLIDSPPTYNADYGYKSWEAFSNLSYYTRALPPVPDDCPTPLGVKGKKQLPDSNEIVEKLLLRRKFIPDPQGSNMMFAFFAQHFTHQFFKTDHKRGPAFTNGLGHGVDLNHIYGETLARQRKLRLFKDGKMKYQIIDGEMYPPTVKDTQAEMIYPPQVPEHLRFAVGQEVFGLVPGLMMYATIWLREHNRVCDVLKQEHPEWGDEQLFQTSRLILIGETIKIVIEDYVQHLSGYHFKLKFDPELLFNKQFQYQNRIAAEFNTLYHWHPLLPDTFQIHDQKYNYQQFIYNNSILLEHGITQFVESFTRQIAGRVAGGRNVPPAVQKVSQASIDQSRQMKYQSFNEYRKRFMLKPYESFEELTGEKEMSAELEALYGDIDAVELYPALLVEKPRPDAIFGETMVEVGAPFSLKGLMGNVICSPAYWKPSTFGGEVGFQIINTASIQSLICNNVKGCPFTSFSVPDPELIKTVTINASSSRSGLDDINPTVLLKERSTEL

[10] = target: High affinity choline transporter 1 (Homo sapiens) (UniProt Q9GZV3); test: Selectivity interaction (CEREP Wide Ligand screening panel (ion channels, receptors, enzymes)) EUB0000304b SLC5A7; conditions: at 10 µM
[11] = target: Sodium channel protein type 2 subunit alpha (Homo sapiens, UniProt Q99250); test: Selectivity interaction (CEREP Wide Ligand screening panel (ion channels, receptors, enzymes)) EUB0000304b SCN2A; conditions: at 10 µM
[12] = target: T3, Gamma-aminobutyric acid receptor subunit alpha-1 (Homo sapiens, UniProt P14867); test: Selectivity interaction (GPCR panel (PDSP screen)) EUB0000304b GABRA1
T3 sequence (P14867 whole entry): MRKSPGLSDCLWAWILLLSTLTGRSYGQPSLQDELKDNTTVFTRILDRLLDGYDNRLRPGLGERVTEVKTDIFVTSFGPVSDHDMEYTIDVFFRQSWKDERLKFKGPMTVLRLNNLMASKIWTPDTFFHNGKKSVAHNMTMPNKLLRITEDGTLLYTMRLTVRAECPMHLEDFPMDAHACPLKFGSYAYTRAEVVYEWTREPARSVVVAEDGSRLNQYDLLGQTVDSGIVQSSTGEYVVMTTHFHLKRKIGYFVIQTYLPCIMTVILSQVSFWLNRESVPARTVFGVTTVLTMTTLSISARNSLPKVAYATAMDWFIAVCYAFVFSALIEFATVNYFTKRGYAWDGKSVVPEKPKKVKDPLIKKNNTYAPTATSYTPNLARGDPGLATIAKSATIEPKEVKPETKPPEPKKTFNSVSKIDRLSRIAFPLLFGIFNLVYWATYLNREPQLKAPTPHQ

[13] = target: Adenosine receptor A2b (Homo sapiens, UniProt P29275); test: Selectivity interaction (Enzyme panel (ion channels, GPCRs, other targets)) EUB0000196bCl ADORA2B
[14] = target: T1, Kappa-type opioid receptor; test: Selectivity interaction (Enzyme panel (ion channels, GPCRs, other targets)) EUB0000196bCl OPRK1
[15] = target: Protein arginine N-methyltransferase 5 (Homo sapiens, UniProt O14744); test: Selectivity interaction (Methyltransferase panel) EUB0000196bCl PRMT5
[16] = target: T4, Histone-lysine N-methyltransferase SETD7 (Homo sapiens, UniProt Q8WTS6); test: Selectivity interaction (ITC) EUB0000196bCl SETD7
T4 sequence (Q8WTS6 whole entry): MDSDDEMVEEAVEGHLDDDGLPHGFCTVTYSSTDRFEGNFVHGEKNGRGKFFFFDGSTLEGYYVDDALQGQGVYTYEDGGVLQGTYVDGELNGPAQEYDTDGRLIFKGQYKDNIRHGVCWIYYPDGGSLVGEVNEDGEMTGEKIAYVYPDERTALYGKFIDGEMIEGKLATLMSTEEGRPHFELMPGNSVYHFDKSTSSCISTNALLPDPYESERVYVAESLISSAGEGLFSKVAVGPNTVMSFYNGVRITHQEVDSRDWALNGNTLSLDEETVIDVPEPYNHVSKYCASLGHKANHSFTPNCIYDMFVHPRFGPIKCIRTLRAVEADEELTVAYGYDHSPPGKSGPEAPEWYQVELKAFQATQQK

[17] = target: DNA (cytosine-5)-methyltransferase 1 (Homo sapiens, UniProt P26358); test: Selectivity interaction (Methyltransferase panel) EUB0000196bCl DNMT1
[18] = target: N-lysine methyltransferase SMYD2 (Homo sapiens, UniProt Q9NRG4); test: Selectivity interaction (Methyltransferase panel) EUB0000196bCl SMYD2
[19] = target: Bombesin receptor subtype-3 (Homo sapiens, UniProt P32247); test: Selectivity interaction (Enzyme panel (ion channels, GPCRs, other targets)) EUB0000196bCl BRS3
[20] = target: Histone-lysine N-methyltransferase 2A (Homo sapiens, UniProt Q03164); test: Selectivity interaction (Methyltransferase panel) EUB0000196bCl MLL
[21] = target: Histone-lysine N-methyltransferase, H3 lysine-79 specific (Homo sapiens, UniProt Q8TEK3); test: Selectivity interaction (Methyltransferase panel) EUB0000196bCl DOT1L
[22] = target: Histone-lysine N-methyltransferase EHMT1 (Homo sapiens, UniProt Q9H9B1); test: Selectivity interaction (Methyltransferase panel) EUB0000196bCl EHMT1
[23] = target: Histone-lysine N-methyltransferase EHMT2 (Homo sapiens, UniProt Q96KQ7); test: Selectivity interaction (Methyltransferase panel) EUB0000196bCl EHMT2
[24] = target: T5, Histone-lysine N-methyltransferase EZH1 (Homo sapiens, UniProt Q92800); test: Selectivity interaction (Methyltransferase panel) EUB0000196bCl EZH1
T5 sequence (Q92800 whole entry): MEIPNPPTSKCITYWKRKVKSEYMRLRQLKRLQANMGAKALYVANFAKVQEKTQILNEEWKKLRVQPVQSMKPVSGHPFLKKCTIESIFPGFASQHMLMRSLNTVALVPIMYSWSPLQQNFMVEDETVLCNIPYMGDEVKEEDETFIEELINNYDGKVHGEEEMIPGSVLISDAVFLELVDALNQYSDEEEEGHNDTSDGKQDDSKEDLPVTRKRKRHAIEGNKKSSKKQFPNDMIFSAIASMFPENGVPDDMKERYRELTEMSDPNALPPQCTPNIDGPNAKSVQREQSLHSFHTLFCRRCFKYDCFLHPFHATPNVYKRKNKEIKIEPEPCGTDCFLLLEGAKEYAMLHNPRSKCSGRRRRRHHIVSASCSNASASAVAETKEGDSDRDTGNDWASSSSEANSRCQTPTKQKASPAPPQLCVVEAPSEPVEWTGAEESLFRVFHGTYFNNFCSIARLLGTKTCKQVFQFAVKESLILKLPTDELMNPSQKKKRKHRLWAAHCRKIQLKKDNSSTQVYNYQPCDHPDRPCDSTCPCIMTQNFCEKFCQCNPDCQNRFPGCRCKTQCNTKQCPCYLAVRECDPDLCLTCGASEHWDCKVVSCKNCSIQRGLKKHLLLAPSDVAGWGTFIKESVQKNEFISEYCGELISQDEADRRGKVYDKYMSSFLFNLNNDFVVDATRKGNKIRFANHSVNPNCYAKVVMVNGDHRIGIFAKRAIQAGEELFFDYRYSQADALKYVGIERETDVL

[25] = target: Histone-lysine N-methyltransferase EZH2 (Homo sapiens, UniProt Q15910); test: Selectivity interaction (Methyltransferase panel) EUB0000196bCl EZH2
[26] = target: Histone-lysine N-methyltransferase NSD2 (Homo sapiens, UniProt O96028); test: Selectivity interaction (Methyltransferase panel) EUB0000196bCl NSD2
[27] = target: Protein arginine N-methyltransferase 1 (Homo sapiens, UniProt Q99873); test: Selectivity interaction (Methyltransferase panel) EUB0000196bCl PRMT1
[28] = target: Protein arginine N-methyltransferase 3 (Homo sapiens, UniProt O60678); test: Selectivity interaction (Methyltransferase panel) EUB0000196bCl PRMT3
[29] = target: Protein arginine N-methyltransferase 8 (Homo sapiens, UniProt Q9NR22); test: Selectivity interaction (Methyltransferase panel) EUB0000196bCl PRMT8
[30] = target: Histone-lysine N-methyltransferase SETD2 (Homo sapiens, UniProt Q9BYW2); test: Selectivity interaction (Methyltransferase panel) EUB0000196bCl SETD2
[31] = target: T6, N-lysine methyltransferase KMT5A (Homo sapiens, UniProt Q9NQR1); test: Selectivity interaction (Methyltransferase panel) EUB0000196bCl SETD8
T6 sequence (Q9NQR1 whole entry): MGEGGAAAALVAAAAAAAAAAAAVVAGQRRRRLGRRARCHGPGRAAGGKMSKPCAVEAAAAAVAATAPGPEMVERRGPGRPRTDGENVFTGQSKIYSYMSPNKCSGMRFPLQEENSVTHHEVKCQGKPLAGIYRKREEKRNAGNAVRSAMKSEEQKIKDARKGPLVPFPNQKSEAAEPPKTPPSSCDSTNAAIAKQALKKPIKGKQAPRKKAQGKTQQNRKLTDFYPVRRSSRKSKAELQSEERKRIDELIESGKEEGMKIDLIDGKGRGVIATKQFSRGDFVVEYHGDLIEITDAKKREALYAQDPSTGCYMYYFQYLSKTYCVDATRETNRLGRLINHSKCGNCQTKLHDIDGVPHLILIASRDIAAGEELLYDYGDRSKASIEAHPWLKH

[32] = target: Histone-lysine N-methyltransferase SETDB1 (Homo sapiens, UniProt Q15047); test: Selectivity interaction (Methyltransferase panel) EUB0000196bCl SETDB1
[33] = target: Histone-lysine N-methyltransferase SUV39H2 (Homo sapiens, UniProt Q9H5I1); test: Selectivity interaction (Methyltransferase panel) EUB0000196bCl SUV39H2
[34] = target: Histone-lysine N-methyltransferase KMT5B (Homo sapiens, UniProt Q4FZB7); test: Selectivity interaction (Methyltransferase panel) EUB0000196bCl SUV420H1
[35] = target: Histone-lysine N-methyltransferase KMT5C (Homo sapiens, UniProt Q86Y97); test: Selectivity interaction (Methyltransferase panel) EUB0000196bCl SUV420H2
[36] = target: Motilin receptor (Homo sapiens) (UniProt O43193); test: Selectivity interaction (Enzyme panel (ion channels, GPCRs, other targets)) EUB0000196bCl MLN

T1 sequence (P41145 whole entry): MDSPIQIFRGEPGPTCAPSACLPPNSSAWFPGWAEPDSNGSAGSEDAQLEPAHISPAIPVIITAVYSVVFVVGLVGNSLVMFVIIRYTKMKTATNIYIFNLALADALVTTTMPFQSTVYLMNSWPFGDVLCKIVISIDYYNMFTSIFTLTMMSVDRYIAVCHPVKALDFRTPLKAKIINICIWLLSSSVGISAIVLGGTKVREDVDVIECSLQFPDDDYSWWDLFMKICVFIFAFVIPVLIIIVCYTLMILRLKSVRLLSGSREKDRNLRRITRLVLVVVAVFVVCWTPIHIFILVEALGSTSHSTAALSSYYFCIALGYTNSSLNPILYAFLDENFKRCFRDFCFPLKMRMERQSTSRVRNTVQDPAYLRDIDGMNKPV
Sequence of 5-hydroxytryptamine receptor 2B (P41595 whole entry): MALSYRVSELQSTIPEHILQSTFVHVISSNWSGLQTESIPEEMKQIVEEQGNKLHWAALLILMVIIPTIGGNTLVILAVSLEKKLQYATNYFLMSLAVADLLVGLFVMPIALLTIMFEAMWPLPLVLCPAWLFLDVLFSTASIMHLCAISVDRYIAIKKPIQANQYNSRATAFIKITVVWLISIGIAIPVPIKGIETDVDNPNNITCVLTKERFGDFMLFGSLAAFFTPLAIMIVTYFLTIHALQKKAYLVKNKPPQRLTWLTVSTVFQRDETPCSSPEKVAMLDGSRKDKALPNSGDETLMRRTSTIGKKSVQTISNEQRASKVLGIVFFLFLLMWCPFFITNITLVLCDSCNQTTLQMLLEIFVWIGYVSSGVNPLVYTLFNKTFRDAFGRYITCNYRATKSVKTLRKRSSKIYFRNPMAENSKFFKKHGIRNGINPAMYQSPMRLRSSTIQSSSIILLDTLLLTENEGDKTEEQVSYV
Sequence of Histone-lysine N-methyltransferase EHMT2 (Q96KQ7 whole entry): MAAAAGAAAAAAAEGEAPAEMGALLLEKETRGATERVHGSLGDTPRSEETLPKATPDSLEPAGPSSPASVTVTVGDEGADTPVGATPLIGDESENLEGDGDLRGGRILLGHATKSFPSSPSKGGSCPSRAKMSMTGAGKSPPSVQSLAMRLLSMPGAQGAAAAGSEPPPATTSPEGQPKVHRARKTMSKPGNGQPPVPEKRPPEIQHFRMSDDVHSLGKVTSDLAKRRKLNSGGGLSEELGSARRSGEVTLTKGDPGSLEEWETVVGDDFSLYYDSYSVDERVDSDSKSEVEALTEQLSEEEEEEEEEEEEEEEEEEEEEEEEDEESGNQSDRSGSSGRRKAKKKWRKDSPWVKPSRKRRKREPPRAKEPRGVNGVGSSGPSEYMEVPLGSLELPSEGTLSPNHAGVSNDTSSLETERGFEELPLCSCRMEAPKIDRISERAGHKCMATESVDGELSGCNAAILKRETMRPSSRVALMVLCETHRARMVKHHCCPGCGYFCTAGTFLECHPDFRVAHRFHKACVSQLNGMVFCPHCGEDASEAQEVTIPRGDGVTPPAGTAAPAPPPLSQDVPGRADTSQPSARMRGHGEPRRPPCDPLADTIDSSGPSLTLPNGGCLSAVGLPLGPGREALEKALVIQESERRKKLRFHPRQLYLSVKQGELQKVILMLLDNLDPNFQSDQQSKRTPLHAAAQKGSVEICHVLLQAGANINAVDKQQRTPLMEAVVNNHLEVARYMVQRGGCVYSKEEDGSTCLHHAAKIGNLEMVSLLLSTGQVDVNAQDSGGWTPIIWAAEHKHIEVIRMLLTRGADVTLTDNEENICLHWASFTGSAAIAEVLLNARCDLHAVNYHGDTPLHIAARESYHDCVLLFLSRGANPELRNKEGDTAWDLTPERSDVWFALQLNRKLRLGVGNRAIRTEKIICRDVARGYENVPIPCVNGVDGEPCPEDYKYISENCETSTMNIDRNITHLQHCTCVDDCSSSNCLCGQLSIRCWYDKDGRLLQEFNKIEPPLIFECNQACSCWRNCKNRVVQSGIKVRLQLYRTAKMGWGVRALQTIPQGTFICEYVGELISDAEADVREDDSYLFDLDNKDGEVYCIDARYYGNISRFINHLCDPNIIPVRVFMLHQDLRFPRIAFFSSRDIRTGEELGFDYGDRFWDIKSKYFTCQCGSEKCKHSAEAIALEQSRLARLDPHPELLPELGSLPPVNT
Sequence of Histone-lysine N-methyltransferase, H3 lysine-79 specific (Q8TEK3 whole entry): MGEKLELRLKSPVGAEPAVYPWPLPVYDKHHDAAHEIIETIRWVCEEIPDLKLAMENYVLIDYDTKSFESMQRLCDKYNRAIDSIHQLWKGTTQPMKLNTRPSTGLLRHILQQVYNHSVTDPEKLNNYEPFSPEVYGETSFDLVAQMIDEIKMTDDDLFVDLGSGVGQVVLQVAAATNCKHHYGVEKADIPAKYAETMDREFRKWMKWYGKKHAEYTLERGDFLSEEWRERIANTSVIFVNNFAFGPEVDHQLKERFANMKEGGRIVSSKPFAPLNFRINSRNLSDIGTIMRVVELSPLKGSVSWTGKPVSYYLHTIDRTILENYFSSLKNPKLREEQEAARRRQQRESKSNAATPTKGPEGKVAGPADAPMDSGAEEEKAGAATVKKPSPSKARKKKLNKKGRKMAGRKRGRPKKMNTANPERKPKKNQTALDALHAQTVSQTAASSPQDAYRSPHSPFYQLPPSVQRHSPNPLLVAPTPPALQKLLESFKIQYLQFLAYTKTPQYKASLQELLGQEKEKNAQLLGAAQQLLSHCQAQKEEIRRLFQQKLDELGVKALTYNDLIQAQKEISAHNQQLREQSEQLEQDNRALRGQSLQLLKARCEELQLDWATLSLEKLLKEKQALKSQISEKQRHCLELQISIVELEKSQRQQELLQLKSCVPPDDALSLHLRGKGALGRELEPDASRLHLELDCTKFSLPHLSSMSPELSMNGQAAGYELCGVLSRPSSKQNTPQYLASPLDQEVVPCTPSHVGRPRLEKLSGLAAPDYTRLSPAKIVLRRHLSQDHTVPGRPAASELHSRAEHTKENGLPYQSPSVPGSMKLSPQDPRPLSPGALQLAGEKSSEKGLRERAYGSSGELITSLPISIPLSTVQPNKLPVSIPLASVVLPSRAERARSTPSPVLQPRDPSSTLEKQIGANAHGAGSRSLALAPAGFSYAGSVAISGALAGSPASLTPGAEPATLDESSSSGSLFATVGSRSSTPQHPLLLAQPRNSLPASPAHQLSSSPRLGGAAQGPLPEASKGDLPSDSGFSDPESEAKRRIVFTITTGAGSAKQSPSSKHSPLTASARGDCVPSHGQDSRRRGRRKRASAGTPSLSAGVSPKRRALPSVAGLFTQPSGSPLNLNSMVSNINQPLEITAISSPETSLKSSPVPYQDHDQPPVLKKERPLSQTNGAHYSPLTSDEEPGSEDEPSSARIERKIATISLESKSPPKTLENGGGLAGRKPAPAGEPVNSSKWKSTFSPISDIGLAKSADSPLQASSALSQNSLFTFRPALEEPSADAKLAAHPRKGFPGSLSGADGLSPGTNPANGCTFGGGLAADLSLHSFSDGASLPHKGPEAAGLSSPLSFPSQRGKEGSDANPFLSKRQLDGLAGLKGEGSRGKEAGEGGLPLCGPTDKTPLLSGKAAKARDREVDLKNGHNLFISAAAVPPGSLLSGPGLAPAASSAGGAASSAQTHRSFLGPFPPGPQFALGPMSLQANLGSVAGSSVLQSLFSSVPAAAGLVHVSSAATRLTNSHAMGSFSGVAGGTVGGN
Sequence of Bombesin receptor subtype-3 (P32247 whole entry): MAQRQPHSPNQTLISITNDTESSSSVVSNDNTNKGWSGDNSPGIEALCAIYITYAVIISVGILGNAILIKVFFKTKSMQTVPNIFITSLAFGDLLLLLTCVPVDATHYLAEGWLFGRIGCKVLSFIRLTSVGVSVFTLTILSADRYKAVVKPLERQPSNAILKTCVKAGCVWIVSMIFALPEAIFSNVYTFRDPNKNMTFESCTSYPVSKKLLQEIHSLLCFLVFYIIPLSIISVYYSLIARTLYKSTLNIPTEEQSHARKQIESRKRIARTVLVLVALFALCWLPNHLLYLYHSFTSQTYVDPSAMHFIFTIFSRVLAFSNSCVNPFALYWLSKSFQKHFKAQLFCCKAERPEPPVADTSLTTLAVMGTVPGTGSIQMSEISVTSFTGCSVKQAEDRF
Sequence of Protein arginine N-methyltransferase 3 (O60678 whole entry): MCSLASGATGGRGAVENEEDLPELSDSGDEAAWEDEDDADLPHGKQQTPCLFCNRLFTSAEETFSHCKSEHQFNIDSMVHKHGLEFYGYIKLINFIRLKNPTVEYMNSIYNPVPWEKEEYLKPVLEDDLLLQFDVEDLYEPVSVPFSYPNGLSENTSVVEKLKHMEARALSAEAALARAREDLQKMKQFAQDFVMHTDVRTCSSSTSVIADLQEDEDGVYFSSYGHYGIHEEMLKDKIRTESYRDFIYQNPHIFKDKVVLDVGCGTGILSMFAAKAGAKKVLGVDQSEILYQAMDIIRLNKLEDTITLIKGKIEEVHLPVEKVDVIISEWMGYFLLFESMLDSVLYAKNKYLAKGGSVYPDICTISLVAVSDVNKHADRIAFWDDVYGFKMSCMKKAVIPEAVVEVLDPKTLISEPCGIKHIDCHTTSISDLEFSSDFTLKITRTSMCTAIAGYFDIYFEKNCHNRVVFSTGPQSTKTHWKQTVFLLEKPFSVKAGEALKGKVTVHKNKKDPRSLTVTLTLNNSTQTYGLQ
Sequence of Adenosine receptor A2b (Homo sapiens) (P29275 whole entry): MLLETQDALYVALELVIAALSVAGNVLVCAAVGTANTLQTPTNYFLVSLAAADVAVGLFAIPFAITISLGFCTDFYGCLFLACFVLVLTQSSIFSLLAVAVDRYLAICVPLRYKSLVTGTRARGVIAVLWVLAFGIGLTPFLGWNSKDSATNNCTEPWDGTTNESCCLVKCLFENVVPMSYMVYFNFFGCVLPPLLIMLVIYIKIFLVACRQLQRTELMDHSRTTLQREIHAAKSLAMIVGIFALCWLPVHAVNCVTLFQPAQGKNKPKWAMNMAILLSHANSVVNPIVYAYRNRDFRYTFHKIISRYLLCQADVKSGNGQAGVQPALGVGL
Sequence of Adenosine receptor A2b (P29275 whole entry): as above

SMILES: C[C@H](c1ccc(F)cc1)N(Cc1cccc(C(=O)O)c1)C(=O)c1cnc2ccccc2c1 [PF-05105679]
- % of effect [1]: 26%
- % of effect [2]: 21%
- % of effect [3]: 21%
- % of effect [4]: 35%
- % of effect [5]: 32%
- % of effect [6]: 20%
- % of effect [7]: 25%
- % of effect [8]: 18%
- % of effect [9]: 21%
- % of effect [10]: 22%
- % of effect [11]: 32%
- Ki [12]: 1.02 µM

SMILES: O=C([C@@H](Cc1cccc(C(F)(F)F)c1)NS(=O)(=O)c1cc(F)c2c(c1)CCNC2)N1CCCC1
- Ki [13]: 1.3 µM
- Ki [14]: 3.8 µM
- EC50 [15]: > 10 µM
- Kd [16]: 0.018 µM
- EC50 [17]: > 10 µM
- EC50 [18]: > 10 µM
- Ki [19]: 8.1 µM
- EC50 [20]: > 10 µM
- EC50 [21]: > 10 µM
- EC50 [22]: > 10 µM
- EC50 [23]: > 10 µM
- EC50 [24]: > 10 µM
- EC50 [25]: > 10 µM
- EC50 [26]: > 10 µM
- EC50 [27]: > 10 µM
- EC50 [28]: > 10 µM
- EC50 [29]: > 10 µM
- EC50 [30]: > 10 µM
- EC50 [31]: > 10 µM
- EC50 [32]: > 10 µM
- EC50 [33]: > 10 µM
- EC50 [34]: > 10 µM
- EC50 [35]: > 10 µM
- Ki [36]: 7.2 µM
